“Also recorded” adds a separate entry of the source.
Columns and labels:
[1] = system: splenocytes of WT-vaccinated HLA-A2 tg mice; type: cell-based, mouse; parameters: key to response compared with WT peptide control, mouse splenocytes: *: Lower response than WT peptide
HLA-A*0201 = target: T1, HLA-A*0201 (Homo sapiens, UniProt P04439, D140Y/D185E/D98H/E176V/E277Q/G131W/G231S/I119V/I121R/I166T/I218V/L300P/L318F/N151K/N90K/P208A/P217A/Q86G/Q94H/R138H/R169H/T345S); type: binding
T1 construct: Soluble MHC was dissolved in PBS containing 0.5 mg/ml bovine γ-globulin; made in house

[2] = system: CD8+ T cells of HLA-A2+ human donors; type: cell-based
HLA-A2 transgenic mice = settings: mouse, in vivo; for IFN-γ ELISpot response after restimulation with WT peptide: sc

Substance | Mouse splenocytes (ex vivo assay), Average [1] | FP binding score, percentage inhibition of tracer peptide binding, 4h (HLA-A*0201) [%] | FP binding score, percentage inhibition of tracer peptide binding, 24h (HLA-A*0201) [%] | DC model: IFN-γ-positive CD8+ T cells, Average [2] | rank by T cell activation, DC model [2] | proportion of vaccinated mice that respond (HLA-A2 transgenic mice) | rank by T cell activation, mouse splenocytes [1] | response compared with WT peptide control, mouse splenocytes [1] | T cell (IFN-γ) response of vaccinated HLA-A2 tg mice, restimulation not specified or both (HLA-A2 transgenic mice) | IFN-γ ELISpot response after restimulation with WT peptide (HLA-A2 transgenic mice)
[CSME][2-AOC]LSTVLGV [N169] | 366 | 89 | 87 | 0.09 | Upper 3 |  |  |  |  | 
NMLSTVLGV [NWT, reference compound] | 436 | 53 | 46 | 0.04 |  | approximately one out of six |  |  |  | 
[3-PYRA]ILGFVFT[2-AOC] [G29] | 39 | 44 | 38 | 0.12 |  |  |  |  |  | 
N[2-AOC]LSTVLGV [N40] | 375 | 71 | 67 | 0.06 |  |  | Upper 3 | N40 ^* |  | 
[3-PYRA]MLSTVLGV [N43] | 108 | 47 | 41 | 0.06 |  |  |  |  |  | 
[2-AOC]MLSTVLGV [N39] | 334 | 68 | 63 | 0.05 |  |  |  |  |  | 
[3-THI][2-AOC]YSDFHFI [F102] | 96 | 92 | 91 | 0.06 | Lower 3 |  | Upper 3 | F102 ^* |  | 
[am-phg]MYSDFHF[2-AOC] [F7] | 54 | 91 | 90 | 0.13 |  |  | Lower 3 |  |  | 
[am-phg]MLSTVLG[2-AOC] [N11] | 3 | 90 | 88 | 0.03 | Lower 3 |  | Lower 3 |  |  | 
[3-THI]MLSTVLG[2-AOC] [N98] | 93 | 83 | 79 | 0.04 |  |  |  |  |  | 
[4-FPHE][2-AOC]LSTVLGV [N95] | 3 | 92 | 90 | 0.07 |  |  |  |  |  | 
GILGFV[BUTGLY]TL [G20] | 36 | 82 | 79 | 0.07 | Lower 3 |  |  |  |  | 
F[2-AOC]YSDFHF[CHA] [F48] | 61 | 93 | 92 | 0.11 |  |  |  |  |  | 
F[2-AOC]YSDFHF[NLE] [F69] | 63 | 90 | 89 | 0.08 | Lower 3 |  |  |  |  | 
FMYSDFHF[2-AOC] [F19] | 62 | 87 | 86 | 0.07 | Lower 3 |  |  |  |  | 
F[2-AOC]LSTVLGV [N177] | 46 | 90 | 88 | 0.04 |  |  |  |  |  | 
[3-PYRA]MYSDFHFI [F100] | 104 | 79 | 73 |  |  |  | Upper 3 |  | improved T cell responses; also recorded: higher homologous and heterologous responses | higher responses compared to WT-peptide vaccination; also recorded: higher IFN-γ responses than WT peptide-vaccinated mice
[4-FPHE]MYSDFHFI [F105] | 62 | 86 | 78 | 0.08 |  |  |  |  |  | 

Substance | Mouse splenocytes (ex vivo assay), Average [1] | FP binding score, percentage inhibition of tracer peptide binding, 4h (HLA-A*0201) [%] | FP binding score, percentage inhibition of tracer peptide binding, 24h (HLA-A*0201) [%] | DC model: IFN-γ-positive CD8+ T cells, Average [2] | rank by T cell activation, DC model [2] | proportion of vaccinated mice that respond (HLA-A2 transgenic mice) | rank by T cell activation, mouse splenocytes [1] | response compared with WT peptide control, mouse splenocytes [1] | T cell (IFN-γ) response of vaccinated HLA-A2 tg mice, restimulation not specified or both (HLA-A2 transgenic mice) | IFN-γ ELISpot response after restimulation with WT peptide (HLA-A2 transgenic mice)
NMLSTVLG[CpALA] [N122] | 128 | 65 | 60 |  |  |  |  |  |  | 
[2-AOC]MYSDFHFI [F95] | 90 | 82 | 80 | 0.12 |  |  |  |  |  | 
[am-phg][CpALA]LGFVFTL [G27] | 35 | 92 | 91 | 0.1 |  |  |  |  |  | 
[am-phg][NVA]YSDFHFI [F193] |  | 85 | 81 |  |  |  |  |  | lowest homologous and heterologous responses | only showed higher responses than WT peptide at a vaccination dose of 25 nmol
[NLE]MLSTVLGV [N52] | 341 | 54 | 46 | 0.03 |  |  |  |  |  | 
[NVA]MLSTVLG[2-AOC] [N15] | 3 | 71 | 65 | 0.07 |  |  | Lower 3 |  |  | 
FMYSDFHF[CHA] [F49] | 60 | 88 | 86 | 0.18 | Upper 3 |  | Lower 3 |  |  | 
[SOME]MLSTVLGV [N61] | 348 | 62 | 54 |  |  |  |  |  |  | 
NM[2-AOC]STVLGV [N41] | 5 | 78 | 73 | 0.08 | Upper 3 |  |  |  |  | 
F[2-AOC]YSDFHFI [F143] | 92 | 93 | 91 |  |  |  | Upper 3 | F143 ^* |  | 
[BCA][2-AOC]YSDFHFI [F112] | 86 | 92 | 91 |  |  |  |  |  |  | 
FMYSDFHF[CpALA] [F52] | 79 | 81 | 78 | 0.13 |  |  |  |  |  | 
FMYSDFHF[HPG] [F63] | 83 | 81 | 78 | 0.08 |  |  |  |  |  | 
[THR-BZL]MYSDFHFI [F142] | 79 | 80 | 77 | 0.08 |  |  |  |  |  | 
[3-PYRA]MLSTVLG[2-AOC] [N8] | 1 | 85 | 82 | 0.01 | Lower 3 |  | Lower 3 |  |  | 
[THR-BZL][2-AOC]YSDFHFI [F141] | 67 | 94 | 93 |  |  |  |  |  |  | 
FMYSDFHF[CSET] [F54] | 78 | 82 | 80 | 0.14 | Upper 3 |  |  |  |  | 
[THR-BZL]MLSTVLGV [N176] | 355 | 73 | 70 | 0.03 |  |  |  |  |  | 

Source: PMC4917206, “Chemical Modification of Influenza CD8+ T-Cell Epitopes Enhances Their Immunogenicity Regardless of Immunodominance” (PLoS ONE, 2016)
